Measured values taken from US20090275653A1, “POLYMORPHIC FORMS OF LADOSTIGIL TARTRATE” (priority 2005, published 2009).
Entries after “also recorded” stand apart in the source; their conditions may differ.

Experiments:
Format in all cases: physicochemical
[1] = Hygroscopicity study: exposure to 0-100% relative humidity at room temperature (Karl Fischer, TGA, crystal form by XRD)
Description: Form E was placed for 1 week under 0-100% relative humidity at room temperature. Table 1 summarizes the results:
Form F was placed for 14 days under 0-100% relative humidity at room temperature. Table 2 summarizes the results:
Form H was placed for 14 days under 0-100% relative humidity at room temperature. Table 3 summarizes the results:
Form J1 was placed for 9 days under 0-100% relative humidity at room temperature. Table 4 summarizes the results:
Table 5 summarizes the results:
(§1) X-Ray powder diffraction data were obtained by method known in the art using a SCINTAG powder X-Ray diffractometer model X'TRA equipped with a solid state detector. Copper radiation of 1.5418 Å was used. A round aluminum sample holder with round zero background quartz plate, with a cavity of 25(diameter)*0.5(depth) mm was used.
(§2) TGA analysis was performed using a Mettler M3 meter. The weight of the samples was about 10 mg. The samples were scanned at a rate of 10° C./min from 25° C. to 200° C. The oven was constantly purged with nitrogen gas at a flow rate of 40 ml/min. Standard 70 μl alumina crucibles covered by lids with 1 hole were used.
(§3) The water content of ladostigil tartrate was measured by methods known in the art, such Karl Fischer analysis.
Crystal form was determined after equilibration of ladostigil tartrate form A for 10 days at various relative humidities at room temperature.
Form A1 was exposed at various humidity conditions at room temperature for 13 days.
Ladostigil tartrate form A1 was exposed to various humidity conditions at room temperature for 14 days. TGA was performed, and the crystal form was analyzed.
A mixture of ladostigil tartrate form A1 and E, containing primarily form A1, was exposed at various humidity conditions at room temperature for 14 days.
Form E was placed for 7 days under 0-100% relative humidity at room temperature. Table 12 summarizes the results:
Form F was placed for 14 days under 0-100% relative humidity at room temperature. Table 14 summarizes the results:
Ladostigil tartrate Form H was exposed for 14 days under 0-100% relative humidity at room temperature. Table 15 summarizes the results:
Crystal ladostigil tartrate Form J1 was placed for 9 days under 0-100% relative humidity at room temperature.

[2] = Water content (Karl Fischer) and loss on drying (TGA) of the form as obtained; settings: for Water content: by weight
Experimental: as §2, §3

[3] = Transformation of crystal form upon standing; settings: upon standing (a few hours)
Experimental: The wet material was determined to be polymorph C. Some of the samples contained polymorph C with low crystallinity. The wet material was dried at 55° C. under vacuum for 17 hours, giving polymorph E. The wet polymorph with low crystallinity was transformed to polymorph E with low crystallinity upon drying under the same conditions. Both polymorph E and polymorph E with low crystallinity were transformed to form A upon standing.
The wet material was dried at 80° C. under vacuum for 17 hours and polymorph E was formed.

[4] = Effect of heating on polymorph form
Experimental: as §1
The heated sample was analyzed by XRD. Form A1 was obtained.
Various polymorph forms and mixtures thereof were heated. The heating conditions and resulting polymorph forms are described in table 17 below: […]

[5] = Effect of micronization, pressing and grinding (XRD)
Experimental: The effects of micronization, pressing (1 minute at 100 metric tons) and grinding were determined by XRD and the following results were obtained: […]

[6] = 0% RH, 14 days, room temperature
[7] = 20% RH, 14 days, room temperature
[8] = 40% RH, 14 days, room temperature
[9] = 60% RH, 14 days, room temperature
[10] = 80% RH, 14 days, room temperature
[11] = 100% RH, 14 days, room temperature
[12] = 0% RH, 9 days, room temperature
[13] = 40% RH, 9 days, room temperature
[14] = 60% RH, 9 days, room temperature
[15] = 100% RH, 9 days, room temperature
[16] = 100% RH, equilibration 10 days, room temperature
[17] = pressing 1 minute at 100 metric tons

With “carbamic acid, ethylmethyl-, (3R)-2,3-dihydro-3-(2-propynylamino)-1H-inden-5-yl ester, (2R,3R)-2,3-dihydroxybutanedioate (2:1) [Form H]” the “Crystal Form (resulting form)” value [1, 6] was “Form H”, the “Loss on Dry by TGA” value [1, 6] was 6.1% and the “Water content by Karl Fisher” value [1, 6] was 0.42%. The “Crystal Form (resulting form)” value [1, 7] was “Form F”, the “Loss on Dry by TGA” value [1, 7] was 5.2% and the “Water content by Karl Fisher” value [1, 7] was 0.7%. The “Crystal Form (resulting form)” value [1, 8] was “Form L”, the “Loss on Dry by TGA” value [1, 8] was 2.7% and the “Water content by Karl Fisher” value [1, 8] was 1.4%. For the same substance, the “Crystal Form (resulting form)” value [1, 9] was “Form A1 + ~30% E”, the “Loss on Dry by TGA” value [1, 9] was 0.5% and the “Water content by Karl Fisher” value [1, 9] was 0.3%. The “Crystal Form (resulting form)” value [1, 10] was “Form A1 + ~20% A”, the “Loss on Dry by TGA” value [1, 10] was 0.2% and the “Water content by Karl Fisher” value [1, 10] was 0.2%. For the same substance, the “Crystal Form (resulting form)” value [1, 11] was “Form A + ~30% A1”, the “Loss on Dry by TGA” value [1, 11] was 0.2% and the “Water content by Karl Fisher” value [1, 11] was 0.3%. For the same substance, the “Weight loss / loss on drying by TGA” value [2] was “about 6%” and the Water content [2] was “about 0.6%”.

In the case of “carbamic acid, ethylmethyl-, (3R)-2,3-dihydro-3-(2-propynylamino)-1H-inden-5-yl ester, (2R,3R)-2,3-dihydroxybutanedioate (2:1) [Form E]”, the “Water content by Karl Fisher” value ([1]; 0% RH, 1 week (7 days), room temperature) is reported as 0.7%, the “Relative humidity range in which the form is stable” value (“Relative humidity range” for short) ([1]; 1 week, room temperature) is reported as 0-60 % RH and the “Water content by Karl Fisher” value ([1]; 20% RH, 1 week (7 days), room temperature) is reported as 0.7%. The “Water content by Karl Fisher” value ([1]; 40% RH, 1 week (7 days), room temperature) was 1.5%, the “Water content by Karl Fisher” value ([1]; 60% RH, 1 week (7 days), room temperature) was 1.8% and the “Water content by Karl Fisher” value ([1]; 80% RH, 1 week (7 days), room temperature) was 0.5%. For the same substance, the “Water content by Karl Fisher” value ([1]; 100% RH, 1 week (7 days), room temperature) was 0.5%, the “Weight loss / loss on drying by TGA” value [2] was 0.7-2% and the Water content [2] was 0.7-2%. For the same substance, the “Crystal form after standing” value ([3]; listed as Polymorph E) was “mixture of polymorphs A and A1” and the “Crystal form after standing” value ([3]; listed as polymorph E) was “form A”.

In the case of “carbamic acid, ethylmethyl-, (3R)-2,3-dihydro-3-(2-propynylamino)-1H-inden-5-yl ester, (2R,3R)-2,3-dihydroxybutanedioate (2:1) [Form J1]”, the “Crystal Form” value [1, 12] is reported as “Form J1”, the “Loss on Dry by TGA” value [1, 12] is reported as 5.4% and the “Water content by Karl Fisher” value [1, 12] is reported as 0.1%. The “Crystal Form” value ([1]; 20% RH, 9 days, room temperature) was “partly to Form K; also recorded: Form K + ~20% J1”, the “Crystal Form” value [1, 13] was “Form K” and the “Loss on Dry by TGA” value [1, 13] was 0.8%. For the same substance, the “Water content by Karl Fisher” value [1, 13] was 0.2%, the “Crystal Form” value [1, 14] was “Form K” and the “Loss on Dry by TGA” value [1, 14] was 0.5%. For the same substance, the “Water content by Karl Fisher” value [1, 14] was 0.2%, the “Crystal Form” value ([1]; 80% RH, 9 days, room temperature) was “Form A1 + ~20% A” and the “Crystal Form” value [1, 15] was “Form A + ~30% A1”. The “Loss on Dry by TGA” value [1, 15] was 0.1%, the “Water content by Karl Fisher” value [1, 15] was 0.0% and the “Weight loss / loss on drying by TGA” value [2] was “about 10%”. For the same substance, the Water content [2] was “about 1%”.

With “carbamic acid, ethylmethyl-, (3R)-2,3-dihydro-3-(2-propynylamino)-1H-inden-5-yl ester, (2R,3R)-2,3-dihydroxybutanedioate (2:1) [Essentially Amorphous Form]” the “Weight loss / loss on drying by TGA” value [2] was “about 5%” and the Water content [2] was “about 2%”.

With “carbamic acid, ethylmethyl-, (3R)-2,3-dihydro-3-(2-propynylamino)-1H-inden-5-yl ester, (2R,3R)-2,3-dihydroxybutanedioate (2:1) [Form B]” the “Resulting form after heating/drying” value ([4]; 80° C., time not specified) was “mixture of Form A1 and form E, primarily form A1” and the “Weight loss / loss on drying by TGA” value [2] was “about 1%”.

With “carbamic acid, ethylmethyl-, (3R)-2,3-dihydro-3-(2-propynylamino)-1H-inden-5-yl ester, (2R,3R)-2,3-dihydroxybutanedioate (2:1) [Form F]” the “Crystal Form (resulting form)” value [1, 6] was “Form F”, the “Water content by Karl Fisher” value [1, 6] was 1.3% and the “Crystal Form (resulting form)” value [1, 7] was “Form F”. For the same substance, the “Loss on Dry by TGA” value [1, 7] was 3.0%, the “Water content by Karl Fisher” value [1, 7] was 2.2% and the “Crystal Form (resulting form)” value [1, 8] was “Form F”. For the same substance, the “Loss on Dry by TGA” value [1, 8] was 2.9%, the “Water content by Karl Fisher” value [1, 8] was 2.6% and the “Crystal Form (resulting form)” value [1, 9] was “Form A1 + ~10% E”. The “Loss on Dry by TGA” value [1, 9] was 0.3%, the “Water content by Karl Fisher” value [1, 9] was 0.3% and the “Crystal Form (resulting form)” value [1, 10] was “Form A1 + ~20% A”. The “Loss on Dry by TGA” value [1, 10] was 0.2%, the “Water content by Karl Fisher” value [1, 10] was 0.3% and the “Loss on Dry by TGA” value [1, 11] was 0.3%. The “Water content by Karl Fisher” value [1, 11] was 0.3%, the “Relative humidity range” value ([1]; 14 days, room temperature) was 0-40 % RH and the “Weight loss / loss on drying by TGA” value [2] was “about 3%”. For the same substance, the Water content [2] was 1.3-2.6%.

With “carbamic acid, ethylmethyl-, (3R)-2,3-dihydro-3-(2-propynylamino)-1H-inden-5-yl ester, (2R,3R)-2,3-dihydroxybutanedioate (2:1) [Form K]” the “Relative humidity range” value ([1]; from the 9 day study of Form J1, room temperature) was 20-60 % RH, the “Weight loss / loss on drying by TGA” value [2] was 0.5-0.8% and the Water content [2] was “about 0.2%”.

With “carbamic acid, ethylmethyl-, (3R)-2,3-dihydro-3-(2-propynylamino)-1H-inden-5-yl ester, (2R,3R)-2,3-dihydroxybutanedioate (2:1) [Form C]” the “Resulting form after heating/drying” value ([4]; 50° C. under vacuum, 1 hour) was “Form C was still detected”, the “Resulting form after heating/drying” value ([4]; 50° C. under vacuum, 12 hours) was “Form B” and the “Resulting form after heating/drying” value ([4]; 55° C. under vacuum, 17 hours) was “Form E”. The “Resulting form after heating/drying” value ([4]; 55° C., 17 hours) was “Form B”, the “Resulting form after heating/drying” value ([4]; 55° C., 19 hours) was “Form B” and the “Weight loss / loss on drying by TGA” value [2] was “about 40%”. For the same substance, the Water content [2] was “about 2%”.

For “carbamic acid, ethylmethyl-, (3R)-2,3-dihydro-3-(2-propynylamino)-1H-inden-5-yl ester, (2R,3R)-2,3-dihydroxybutanedioate (2:1) [Form L]”, the “Resulting form after heating/drying” value ([4]; 60° C. in conventional oven, 2 hours) was “polymorphically stable”, the “Weight loss / loss on drying by TGA” value [2] was 2.7-13.8% and the Water content [2] was 0.6-1.4%.

In the case of “carbamic acid, ethylmethyl-, (3R)-2,3-dihydro-3-(2-propynylamino)-1H-inden-5-yl ester, (2R,3R)-2,3-dihydroxybutanedioate (2:1) [Form A]”, the Water content ([1]; 20% RH, equilibration 10 days, room temperature) is reported as 0.3%, the Water content ([1]; 40% RH, equilibration 10 days, room temperature) is reported as 0.3% and the Water content ([1]; 60% RH, equilibration 10 days, room temperature) is reported as 0.3%. For the same substance, the Water content ([1]; 80% RH, equilibration 10 days, room temperature) was 0.3%, the Crystal Form [1, 16] was “stable” and the Water content [1, 16] was 0.2%. For the same substance, the Hygroscopicity ([1]; conclusion in words) was “neither Form A nor Form A1 is hygroscopic; also recorded: non-hygroscopic”, the “Crystal form upon exposure to high relative humidity” value ([1]; high relative humidity, in words) was “does not change crystalline form” and the “Crystal form after grinding” value ([5]; grinding) was “mixture of Forms A and A1”. The “Crystal form after pressing” value [5, 17] was “mainly to Form A1”, the Crystallinity after pressing [5, 17] was “lose some extent of crystallinity” and the “Weight loss / loss on drying by TGA” value [2] was “about 0.3%”. The Water content [2] was “about 0.3%”.
